Reference: US20240091267A1, “PRE-TREATMENT OF MSC WITH PPARB/DELTA AGONIST FOR TREATMENT OF ISCHEMIA-REPERFUSION INJURY” (Universite de Montpellier, priority 2020, published 2024)
Read-outs that look alike come from different tables or passages of the source.

How the values were obtained:
H9c2 cardiomyocytes = assay: Transwell co-culture of MSC with H9c2 exposed to H2O2, specific DNA fragmentation in H9c2; type: cell-based, rattus norvegicus; details: vs naive MSC
Method: FIG. 7: Increased anti-apoptotic effects of PPARβ/δ-primed MSC on cardiomyocytes. (A) After 24 hours of MSC pharmacological preconditioning using PPARβ/δ agonist, cells were co-cultured using transwells (upper chamber) with H9c2 (lower chamber). Both cultures were exposed to 4 hours of 350 μM of H2O2 in minimal medium (serum deprivation). At the end of the protocol, specific DNA fragmentation was quantified in H9c2 cells and values were compared with those obtained for co-cultures with naive MSC or MSC pre-treated with PPARβ/δ antagonists (GSK0660 or GSK03787) and exposed to 350 H2O2μM (B, C, D) Scatter dot plot and bars were presented for specific DNA fragmentation quantified in H9c2 at the end of the protocols. Data (mean±SD for each group of treatment) were normalized by values obtained with naive MSC/H2O2 and compared using Kruskal-Wallis (Dunn's post hoc test). (B): data were obtained using the condition 1 protocol. (C): the condition 2 protocol P was followed and p value was noted **** for p<0.0001 (MSC, n=16 independent cultures vs MSC/H2O2, n=18). For the data obtained with condition 3 protocol (D), p value was noted * for p=0.0436 (MSC+1 μM GSK0660/H2O2, n=6 vs MSC/H2O2, n=10).
H9c2, rattus norvegicus cardiomyocytes, were cultured in Dulbecco's modified Eagle's medium (DMEM), supplemented with 10% fetal bovine serum (FBS), 100 Units/mL penicillin, and 100 μg/mL streptomycin. To induce apoptosis, H9c2 were cultured in a minimal medium (without FBS) containing 350 μM of H2O2 during 4 hours. In order to evaluate the effect of MSCs on cardiomyocytes, a co-culture assay was designed using the transwell system to avoid cell-cell contact. 15,000 cardiomyocytes (lower part) were plated per well of a 12-well dish with or 15,000 MSC (upper part) in presence of 350 OA of H2O2. Two different protocols of co-culture were performed. In protocol 1, H9c2 and co-cultured MSC were exposed to H2O2(with serum deprivation). In protocol 2, H9c2 were exposed to H2O2 in minimal medium during 4 hours and after a wash, cells were co-cultured in complete medium with MSC. In protocol 3, H9c2 were cultured in presence of H2O2 during 4 hours in regular medium deprived in serum, which was continued for an extra 1 hour. Then the co-culture of H9c2 with MSC was performed in complete medium for 1 hour. At the end of all protocols, H9c2 were recovered for apoptosis and RT-qPCR analysis.
DNA fragmentation was quantified in vitro on cell lysates with an enzyme-linked immunosorbent assay kit (Cell Death ELISA; Roche Diagnostics) designed to measure of histone-complexed DNA fragments (mono- and oligonucleosomes) out of the cytoplasm of cells after the induction of apoptosis.
To determine the role of PPARβ/δ on MSC-induced protective effect on cardiomyocytes we designed and developed three protocols in order to mimic the stress received by MSC when transplanted into infarcted tissues. The first protocol consisted in co-culturing naive or primed MSC with H9c2 exposed to 350 μM of H2O2 for 4 hours using transwell. The second protocol consisted in exposing […] μM of H2O2 for 4 hours before to co-culture them with naive or primed MSC in a complete medium. The third protocol consisted in exposing H9c2 to 350 μM of H2O2 for 4 hours followed by serum deprivation for 1 hour before to co-culture them with naive or primed MSC in a complete medium (FIG. 7A).

[1] = 3 mg/kg/day, mice; cited from earlier work
[2] = 3 mg/kg/day, rats; cited from earlier work
[3] = system: cardiomyoblast cell line H9c2; details: H9c2 cardiomyoblasts; cited from earlier work
[4] = system: isolated perfused hearts from C57B16 mice; assay: Ex vivo Langendorff ischemia-reperfusion, infarct size, effect of preconditioning duration (Example 3); set-up: species or system mouse (C57BL/6); details: 4.10^5 cells/heart; for Decrease in infarct size: vs IR

Compound	Specific DNA fragmentation in H9c2 (anti-apoptotic effect of MSC) (H9c2 cardiomyocytes; protocol 1: MSC pretreated 24 h with 1 μM, co-cultured with H9c2 under 350 μM H2O2 4 h)	Specific DNA fragmentation in H9c2 (anti-apoptotic effect of MSC) (H9c2 cardiomyocytes; protocol 2: H9c2 exposed to 350 μM H2O2 4 h, then co-culture in complete medium with MSC pretreated with 1 μM)	Specific DNA fragmentation in H9c2 (anti-apoptotic effect of MSC) (H9c2 cardiomyocytes; protocol 3: H9c2 350 μM H2O2 4 h, serum deprivation 1 h, then co-culture in complete medium with MSC pretreated with 1 μM)	Carcinogenicity [1]	Carcinogenicity [2]	Protection from H2O2-induced cell death [3]	Infarct size, mean value ([4]; MSC preconditioned 24 h (1-day) with 0.1 μM, n=7)	Decrease in infarct size ([4]; MSC preconditioned 24 h with 0.1 μM) [%]	Decrease in infarct size ([4]; MSC preconditioned 4 days (96 h) with 0.1 μM) [%]	Infarct size, mean value ([4]; MSC preconditioned 4 days with 0.1 μM, n=8) [%]
O=C(NCCS(=O)(=O)c1ccc(C(F)(F)F)cn1)c1ccc(Cl)cc1 [GSK3787]	lose their capacity to protect cardiomyocytes from apoptosis	did not change MSC protective properties	lose their capacity to protect cardiomyocytes from apoptosis							
Cc1cc(SCc2sc(-c3ccc(C(F)(F)F)cc3)nc2C)ccc1OCC(=O)O [GW501516]				caused cancer to develop rapidly in several organs	caused cancer to develop rapidly in several organs	protect the cardiomyoblast cell line H9c2 from H2O2-induced cell death	37.4 % of LV mass	52.8	54.5	36.05
